How the values were obtained:
Helicobacter pylori [1] = test: Receptor activity of oligosaccharides for Helicobacter pylori; format: binding; conditions: relative to the non-galactosylated receptor
Protocol: The structure is changed to 10-fold weaker receptor structure Galβ4GlcNAcβ3Galβ4GlcNAcβ3Galβ4Glc by incubating it with UDP-Gal and β4-galactosyltransferase from bovine milk. b) The oligosaccharide receptor GlcNAcβ3Galβ4GlcNAcβ3Galβ4Glc is incubated with GDP-Fuc and soluble human fucosyltransferase VI corresponding to major the fucosyltransferase from human milk. MALDI-TOF mass spectrometric analysis reveled a major peak corresponding to GlcNAcβ3Galβ4(Fucα3)GlcNAcβ3Galβ4Glc, the structure is confirmed by NMR-spectroscopy. c) Erythrocytes from a patient suffering from glycosylation deficiency causing high levels of terminal GlcNAc-structures including GlcNAcβ3Galβ4GlcβCer are incubated with radiolabeled UDP-Gal and βgalactosyltransferase. Transfer of labeled galactose on the cell surface is observed. The galactosylation of the cells reduces the reactivity of the cells with anti-GlcNAc-antibodies.

Helicobacter pylori [2] = conditions: cited from earlier work
[3] = test system: endogenous galactosyltransferase activity of human serum; test: Activation of endogenous galactosyltransferase activity of human serum; format: biochemical
Protocol: Fresh human blood sample was collected from blood group B-individual (5 ml). After clotting for 30 min it was centrifuged at +4° C., 2000 rpm for 25 minutes, and the serum was collected for experiments (2 ml, stored on ice).
Reactions were performed with 50 nmol of acceptor saccharide (GlcNAcβ1-3Galβ1-4GlcNAc, from enzymatic synthesis, purified by ion exchange and gel filtration, characterized by NMR and mass spectrometry), 5 nmol UDP-[^14C]Gal (mixture of nonlabelled and radioactive, radioactivity was 100 000 cpm) and 20 μl of fresh human serum (total volume was 20 μl). Reaction conditions were varied by adding cations and bovine milk β1,4-galactosyltransferase (β1,4GalT).

[4] = test system: IgM antibodies against specific carbohydrate epitopes in serum of cancer patients; test: ELISA of serum IgM antibodies binding to synthetic glycoconjugates; set-up: species or system human
From the text: (§1) A group of four people with various stages of diagnosed cancer of the gastrointestinal tract or the ovary, was studied by analyzing serum samples for their concentrations of IgG and IgM antibodies against specific carbohydrate epitopes. The assay consisted of binding of specific antibodies from serum to synthetic glycoconjugates, washing, and then detecting the specifically bound antibody levels in ELISA with enzyme-labelled anti-human IgG or anti-human IgM secondary antibodies and quantitation of specific reaction products.

[5] = test system: IgG antibodies against specific carbohydrate epitopes in serum of cancer patients; test: ELISA of serum IgG antibodies binding to synthetic glycoconjugates; set-up: species or system human; conditions: for serum antibody levels against the epitope, summary in words: IgG and IgM, group of four cancer patients
From the text: as §1

[6] = test system: terminal GlcNAc residues in lung adenocarcinoma tissue sections; test: Labeling of terminal GlcNAc residues in tissue sections with UDP-GalN-biotin; set-up: species or system human; conditions: streptavin-FITC, fluorescence microscopy
Protocol: In a typical procedure, an oligosaccharide acceptor such as GlcNAcβ1-3Galβ1-4GlcNAcβ1-3Galβ1-4Glc, or deparaffinised formalin-fixed paraffin-embedded tissue sections, are incubated at + 37° C. with a reaction mixture containing 10 mM UDP-GalN-biotin, 160 U/l enzyme, 100 mM Tris-HCl, and 20 mM MnCl2. After washing, the biotin groups are visualised by standard methods in the art, using streptavidin or avidin coupled reagents, for example streptavidin-FITC.

[7] = test system: recombinant β1,4-galactosyltransferase similar to the enzyme described in (Ramakrishnan and Qasba, 2002); test: Transfer of modified galactosamine from UDP-GalN conjugates to terminal GlcNAc acceptor by modified galactosyltransferase; format: biochemical, bovine; conditions: MALDI-TOF MS of the product

| Compound | antibody signal intensity from which the assay background has been subtracted ([4]; Patient 1, IgM) | antibody signal intensity from which the assay background has been subtracted ([4]; Patient 2, IgM) | antibody signal intensity from which the assay background has been subtracted ([4]; Patient 3, IgM) | antibody signal intensity from which the assay background has been subtracted ([4]; Patient 4, IgM) | serum antibody levels against the epitope, summary in words [5] | antibody signal intensity from which the assay background has been subtracted ([5]; Patient 1, IgG) | antibody signal intensity from which the assay background has been subtracted ([5]; Patient 2, IgG) | antibody signal intensity from which the assay background has been subtracted ([5]; Patient 3, IgG) | antibody signal intensity from which the assay background has been subtracted ([5]; Patient 4, IgG) | also measured |
| --- | --- | --- | --- | --- | --- | --- | --- | --- | --- | --- |
| CC(=O)N[C@H]1[C@H](O[C@H]2[C@@H](O)[C@@H](CO)O[C@@H](O[C@H]3[C@H](O)[C@@H](NC(C)=O)[C@H](O[C@H]4[C@@H](O)[C@@H](CO)O[C@@H](O[C@H]5[C@H](O)[C@@H](O)C(O)O[C@@H]5CO)[C@@H]4O)O[C@@H]3CO)[C@@H]2O)O[C@H](CO)[C@@H](O[C@@H]2O[C@H](CO)[C@H](O)[C@H](O)[C@H]2O)[C@@H]1O (stereo partly shown) [Galβ4GlcNAcβ3Galβ4GlcNAcβ3Galβ4Glc] | – | – | – | – | – | – | – | – | – | receptor strength for Helicobacter pylori, weaker than GlcNAcβ3Galβ4GlcNAcβ3Galβ4Glc (Helicobacter pylori [1]): 10 fold |
| CC(=O)N[C@H]1[C@H](O[C@H]2[C@@H](O)[C@@H](CO)O[C@@H](O[C@H]3[C@H](O)[C@@H](O)C(O)O[C@@H]3CO)[C@@H]2O)O[C@H](CO)[C@@H](O[C@@H]2O[C@H](CO)[C@H](O)[C@@H](O[C@@H]3O[C@H](CO)[C@@H](O)[C@H](O)[C@H]3NC(C)=O)[C@H]2O)[C@@H]1O (stereo partly shown) [GlcNAcβ3Galβ4GlcNAcβ3Galβ4Glc] | – | – | – | – | – | – | – | – | – | receptor for Helicobacter pylori (Helicobacter pylori [2]): receptor for the gastric pathogen Helicobacter pylori |
| [Cl][Mn][Cl] [MnCl2] | – | – | – | – | – | – | – | – | – | Product ([3]; 0.2 mM MnCl2, no external β1,4GalT): 457 cpm; Product ([3]; 1 mM MnCl2, no external β1,4GalT): 1073 cpm; Product ([3]; 5 mM MnCl2, no external β1,4GalT): 566 cpm |
| GlcNAcβ1-2Manα1-6(GlcNAcβ1-2Manα1-3)Manβ1-4GlcNAcβ1-4(Fucα1-6)GlcNAcβ-N-Asn-R [Saccharide 1] | 0 | 0 | 0.01 | 0 | elevated in one patient | 0 | 0 | 0.006 | 0 | – |
| GlcNAcβ1-3GalNAcα-O—CH2—R [Saccharide 5] | 0.125 | 0.041 | 0.011 | 0.056 | identical pattern of antibody type response | 0.017 | 0.094 | 0 | 0 | – |
| GlcNAcβ1-6(Galβ1-3)GalNAcα-O—CH2—R [Saccharide 3] | 0.091 | 0.008 | 0.068 | 0.042 | elevated in the whole patient group | 0.039 | 0.078 | 0 | 0 | – |
| GlcNAcβ-O—CH2—R [Saccharide 4] | 0.159 | 0.029 | 0.122 | 0 | Two patients showed elevated serum levels of mainly IgM and one patient mainly IgG | 0 | 0.082 | 0.013 | 0 | – |
| uridine 5′-diphospho-N-(6-biotinamidohexanoyl)galactosamine [UDP-GalN-biotin] | – | – | – | – | – | – | – | – | – | labeling of cancer cells in tissue sections [6]: cancer cells could be labeled; transfer of the modified galactosamine residue to a terminal GlcNAc acceptor [7]: reacted |
